“Also recorded” adds a separate entry of the source. Where two headings read alike, the source gives them in different places.
Tests used:
[1] = test system: male rats of the Wistar-100 line; conditions: rat, in vivo
[2] = test system: male rats of the Wistar-100 line; conditions: rat, in vivo; remark: listed apart in the source
[3] = test system: male rats of the Wistar-100 line; conditions: rat, in vivo; remark: listed apart in the source
adult volunteers = conditions: human, in vivo

## O=S(=O)([O-])CC(S)CS.[Na+] (stereo not shown) [Unithiol, 2,3-Dimercaptopropane-sulfonate Na]
[1]
  biochemical parameters of toxic action of ethanol on liver tissue (lipid peroxides, triglycerides, ALT, AST): oral administration of Unithiol yields essentially better values
[2]
  Alanine aminotransferase (ALT) activity in liver homogenates: twice lower
  activity of enzymes characterizing damage of hepatocyte membranes (ALT, AST): reliably lower than in the control group
  concentration of end products of lipid peroxidation (TBA-positive compounds) in blood plasma: reliably differing from an analogous group without use of Unithiol toward; lowering
  mean content of vitamin E and A in blood plasma: on the level of values in the control group
[2]; po
  content of the main endogenous antioxidants (vitamins E, A, SH-groups): preserved on the level close to the values in the control group
[3]
  concentration of end products of lipid peroxidation (TBA-positive compounds) in blood plasma: reliably differing from an analogous group without use of Unithiol toward; lowering
[3]; po
  content of the main endogenous antioxidants (vitamins E, A, SH-groups): preserved on the level close to the values in the control group
Adult volunteers
  biochemical values (MDA, vitamins E and A, SH-groups, ALT, AST, triglycerides): did not lead to worsening of the biochemical values; also recorded: restoration of the initial (basic) level of the biochemical values
  time after intake at which the subjective perception of withdrawal is removed: 8 to 10 min
